Laboratory results reported in US20100152129A1 (priority 2008, published 2010).
Read-outs that look alike come from different tables or passages of the source.

Experiments:
Panc-1 cells = assay: Protein expression using high content cell imaging system, and efficacy score; type: cell-based; conditions: for Efficacy score: cumulative over proteins of Table 7; on BCL2 protein expression: test concentration or dose not given here; on CCND1 protein expression: test concentration or dose not given here; on CDC25B protein expression: test concentration or dose not given here; on CDKN2A protein expression: test concentration or dose not given here; on COX15 protein expression: test concentration or dose not given here; on GADD45-α protein expression: test concentration or dose not given here; on GAPDH protein expression: test concentration or dose not given here; on ID1 protein expression: test concentration or dose not given here; on MMP-1 protein expression: test concentration or dose not given here; on P27 protein expression: test concentration or dose not given here; on PTN protein expression: test concentration or dose not given here
Panc1 cells [1] = assay: Drug induced cytotoxicity at various time points, comparison with known CDK inhibitors
Panc1 cells [2] = conditions: human
[3] = 6 hours post treatment, control 1
[4] = 6 hours post treatment, control 3
[5] = 6 hours post treatment, control 6
[6] = 6 hours post treatment, control 7
[7] = 6 hours post treatment, control 8
[8] = 6 hours post treatment, control 74
[9] = 6 hours post treatment, control 80
[10] = 6 hours post treatment, control 147
[11] = 6 hours post treatment, control 501
[12] = 6 hours post treatment, control 627
[13] = 6 hours post treatment, control 635
[14] = 6 hours post treatment, control 819
[15] = 6 hours post treatment, control 829
[16] = 6 hours post treatment, control 830
[17] = 6 hours post treatment, control 1240
[18] = 16 hours post treatment, control 13
[19] = 16 hours post treatment, control 54
[20] = 16 hours post treatment, control 64
[21] = 16 hours post treatment, control 67
[22] = 16 hours post treatment, control 76
[23] = 16 hours post treatment, control 77
[24] = 16 hours post treatment, control 90
[25] = 16 hours post treatment, control 100
[26] = 16 hours post treatment, control 202
[27] = 16 hours post treatment, control 579
[28] = 16 hours post treatment, control 644
[29] = 16 hours post treatment, control 711
[30] = 16 hours post treatment, control 718
[31] = 16 hours post treatment, control 929
[32] = 16 hours post treatment, control 1109
[33] = 16 hours post treatment, control 2583
[34] = 36 hours post treatment, control 19
[35] = 36 hours post treatment, control 86
[36] = 36 hours post treatment, control 96
[37] = 36 hours post treatment, control 98
[38] = 36 hours post treatment, control 100
[39] = 36 hours post treatment, control 265
[40] = 36 hours post treatment, control 715
[41] = 36 hours post treatment, control 722
[42] = 36 hours post treatment, control 1093
[43] = 36 hours post treatment, control 1316
[44] = 36 hours post treatment, control 1410
[45] = 36 hours post treatment, control 1441
[46] = 36 hours post treatment, control 2840

Work on `CC[C@H](CO)Nc1nc(NCc2ccccc2)c2ncn(C(C)C)c2n1` [Roscovitine] yielded a PTN protein expression (Panc-1 cells; [3]) of 2 fluorescence units, a GADD45-α protein expression (Panc-1 cells; [4]) of 2 fluorescence units and an ID1 protein expression (Panc-1 cells; [4]) of 16 fluorescence units. The P27 protein expression (Panc-1 cells; [5]) was 6 fluorescence units, the CDC25B protein expression (Panc-1 cells; [6]) was 4 fluorescence units and the CDKN2A protein expression (Panc-1 cells; [7]) was 10 fluorescence units. The CCND1 protein expression (Panc-1 cells; [8]) was 82 fluorescence units, the GAPDH protein expression (Panc-1 cells; [9]) was 81 fluorescence units and the CASP3 protein expression (Panc-1 cells; [10]) was 217 fluorescence units. It also gave an MMP-1 protein expression (Panc-1 cells; [11]) of 417 fluorescence units, a COX15 protein expression (Panc-1 cells; [12]) of 936 fluorescence units and a COX2 protein expression (Panc-1 cells; [13]) of 542 fluorescence units. For the same compound, the BAX protein expression (Panc-1 cells; [14]) was 729 fluorescence units, the VEGF protein expression (Panc-1 cells; [15]) was 417 fluorescence units and the BCL2 protein expression (Panc-1 cells; [16]) was 569 fluorescence units. The pRB protein expression (Panc-1 cells; [17]) was 1578 fluorescence units, the Efficacy score (Panc-1 cells; 6 hours) was 1.9 and the GADD45-α protein expression (Panc-1 cells; [18]) was 49 fluorescence units. The CDC25B protein expression (Panc-1 cells; [19]) was 38 fluorescence units, the CDKN2A protein expression (Panc-1 cells; [20]) was 47 fluorescence units and the P27 protein expression (Panc-1 cells; [21]) was 42 fluorescence units. For the same compound, the PTN protein expression (Panc-1 cells; [22]) was 37 fluorescence units, the ID1 protein expression (Panc-1 cells; [23]) was 55 fluorescence units and the CCND1 protein expression (Panc-1 cells; [24]) was 84 fluorescence units. For the same compound, the GAPDH protein expression (Panc-1 cells; [25]) was 99 fluorescence units, the CASP3 protein expression (Panc-1 cells; [26]) was 1272 fluorescence units and the VEGF protein expression (Panc-1 cells; [27]) was 475 fluorescence units. For the same compound, the BCL2 protein expression (Panc-1 cells; [28]) was 529 fluorescence units, the BAX protein expression (Panc-1 cells; [29]) was 747 fluorescence units and the COX15 protein expression (Panc-1 cells; [30]) was 954 fluorescence units. For the same compound, the MMP-1 protein expression (Panc-1 cells; [31]) was 475 fluorescence units, the COX2 protein expression (Panc-1 cells; [32]) was 990 fluorescence units and the pRB protein expression (Panc-1 cells; [33]) was 1632 fluorescence units. For the same compound, the Efficacy score (Panc-1 cells; 16 hours) was 11.5, the GADD45-α protein expression (Panc-1 cells; [34]) was 44 fluorescence units and the COX2 protein expression (Panc-1 cells; [35]) was 67 fluorescence units. The P27 protein expression (Panc-1 cells; [36]) was 63 fluorescence units, the CCND1 protein expression (Panc-1 cells; [37]) was 98 fluorescence units and the CDC25B protein expression (Panc-1 cells; [37]) was 68 fluorescence units. For the same compound, the GAPDH protein expression (Panc-1 cells; [37]) was 75 fluorescence units, the ID1 protein expression (Panc-1 cells; [37]) was 56 fluorescence units and the PTN protein expression (Panc-1 cells; [38]) was 98 fluorescence units. For the same compound, the CASP3 protein expression (Panc-1 cells; [39]) was 1335 fluorescence units, the BAX protein expression (Panc-1 cells; [40]) was 1785 fluorescence units and the COX15 protein expression (Panc-1 cells; [41]) was 1992 fluorescence units. It also gave a VEGF protein expression (Panc-1 cells; [42]) of 1024 fluorescence units, an MMP-1 protein expression (Panc-1 cells; [43]) of 1024 fluorescence units and a BCL2 protein expression (Panc-1 cells; [44]) of 1091 fluorescence units. For the same compound, the CDKN2A protein expression (Panc-1 cells; [45]) was 1322 fluorescence units, the pRB protein expression (Panc-1 cells; [46]) was 1889 fluorescence units and the Efficacy score (Panc-1 cells; 36 hours) was 8.1. The “% Cytotoxicity in Panc1 cells” value (Panc1 cells [1]; 6 hrs after drug treatment) was 12.35%, the “% Cytotoxicity in Panc1 cells” value (Panc1 cells [1]; 16 hrs after drug treatment) was 15.24% and the “% Cytotoxicity in Panc1 cells” value (Panc1 cells [1]; 36 hrs after drug treatment) was 17.35%.
`CN1CC[C@H](c2c(O)cc(O)c3c(=O)cc(-c4ccccc4Cl)oc23)[C@H](O)C1` [Flavopiridol] showed a PTN protein expression (Panc-1 cells; [3]) of 1 fluorescence units, a GADD45-α protein expression (Panc-1 cells; [4]) of 1 fluorescence units and an ID1 protein expression (Panc-1 cells; [4]) of 2 fluorescence units. For the same compound, the P27 protein expression (Panc-1 cells; [5]) was 9 fluorescence units, the CDC25B protein expression (Panc-1 cells; [6]) was 1 fluorescence units and the CDKN2A protein expression (Panc-1 cells; [7]) was 67 fluorescence units. The CCND1 protein expression (Panc-1 cells; [8]) was 78 fluorescence units, the GAPDH protein expression (Panc-1 cells; [9]) was 80 fluorescence units and the CASP3 protein expression (Panc-1 cells; [10]) was 111 fluorescence units. It also gave an MMP-1 protein expression (Panc-1 cells; [11]) of 501 fluorescence units, a COX15 protein expression (Panc-1 cells; [12]) of 689 fluorescence units and a COX2 protein expression (Panc-1 cells; [13]) of 351 fluorescence units. The BAX protein expression (Panc-1 cells; [14]) was 481 fluorescence units, the VEGF protein expression (Panc-1 cells; [15]) was 501 fluorescence units and the BCL2 protein expression (Panc-1 cells; [16]) was 410 fluorescence units. For the same compound, the pRB protein expression (Panc-1 cells; [17]) was 1523 fluorescence units, the Efficacy score (Panc-1 cells; 6 hours) was 1.6 and the GADD45-α protein expression (Panc-1 cells; [18]) was 15 fluorescence units. For the same compound, the CDC25B protein expression (Panc-1 cells; [19]) was 10 fluorescence units, the CDKN2A protein expression (Panc-1 cells; [20]) was 14 fluorescence units and the P27 protein expression (Panc-1 cells; [21]) was 22 fluorescence units. For the same compound, the PTN protein expression (Panc-1 cells; [22]) was 17 fluorescence units, the ID1 protein expression (Panc-1 cells; [23]) was 19 fluorescence units and the CCND1 protein expression (Panc-1 cells; [24]) was 52 fluorescence units. For the same compound, the GAPDH protein expression (Panc-1 cells; [25]) was 100 fluorescence units, the CASP3 protein expression (Panc-1 cells; [26]) was 536 fluorescence units and the VEGF protein expression (Panc-1 cells; [27]) was 129 fluorescence units. The BCL2 protein expression (Panc-1 cells; [28]) was 401 fluorescence units, the BAX protein expression (Panc-1 cells; [29]) was 252 fluorescence units and the COX15 protein expression (Panc-1 cells; [30]) was 459 fluorescence units. For the same compound, the MMP-1 protein expression (Panc-1 cells; [31]) was 129 fluorescence units, the COX2 protein expression (Panc-1 cells; [32]) was 466 fluorescence units and the pRB protein expression (Panc-1 cells; [33]) was 1300 fluorescence units. It also gave an Efficacy score (Panc-1 cells; 16 hours) of 9.4, a GADD45-α protein expression (Panc-1 cells; [34]) of 5 fluorescence units and a COX2 protein expression (Panc-1 cells; [35]) of 2 fluorescence units. It also gave a P27 protein expression (Panc-1 cells; [36]) of 2 fluorescence units, a CCND1 protein expression (Panc-1 cells; [37]) of 27 fluorescence units and a CDC25B protein expression (Panc-1 cells; [37]) of 21 fluorescence units. For the same compound, the GAPDH protein expression (Panc-1 cells; [37]) was 2 fluorescence units, the ID1 protein expression (Panc-1 cells; [37]) was 3 fluorescence units and the PTN protein expression (Panc-1 cells; [38]) was 100 fluorescence units. For the same compound, the CASP3 protein expression (Panc-1 cells; [39]) was 599 fluorescence units, the BAX protein expression (Panc-1 cells; [40]) was 1049 fluorescence units and the COX15 protein expression (Panc-1 cells; [41]) was 1256 fluorescence units. It also gave a VEGF protein expression (Panc-1 cells; [42]) of 316 fluorescence units, an MMP-1 protein expression (Panc-1 cells; [43]) of 316 fluorescence units and a BCL2 protein expression (Panc-1 cells; [44]) of 367 fluorescence units. It also gave a CDKN2A protein expression (Panc-1 cells; [45]) of 798 fluorescence units, a pRB protein expression (Panc-1 cells; [46]) of 1557 fluorescence units and an Efficacy score (Panc-1 cells; 36 hours) of 9.3. The “% Cytotoxicity in Panc1 cells” value (Panc1 cells [2]; 16 h) was 21.25% and the “% Cytotoxicity in Panc1 cells” value (Panc1 cells [2]; 36 h) was 29.47%.
